Laboratory results as given in patent publication US20210220450A1, “TREATMENT OF AN IOP CONDITION” (The Research Foundation for The State University of New York, priority 2013, published 2021).

Legend:
[1] = system: MMP-1, MMP-2, MMP-9, MMP-13, PLAT, PAI-1 mRNA; assay: qRT-PCR gene expression in sheep TM and ciliary processes after tPA (Examples 6, 7); type: in vivo
Description: Methods. Tissue Collection and Isolation of RNA. After animals were euthanized, eyes were immediately enucleated. Eyes were then opened anterior to the equator using a razor blade. The lens was removed from the anterior part, and the tissue was immersed in RNA stabilizing agent (RNAlater; Ambion, Carlsbad, Calif.) and placed […] for transportation to the United States. Upon arrival in the United States, TM and ciliary processes (CP) were dissected on ice in the presence of RNA stabilizing agent as described previously. Dissected tissue was homogenized, and total RNA was extracted using TRIzol reagent (Gibco, Carlsbad, Calif.). Briefly, the tissue was homogenized in TRIzol, and chloroform was added to separate proteins from RNA. After centrifugation, the RNA-containing supernatant was aspirated. The RNA was precipitated with isopropanol, washed with 75% ethanol, treated with DNase, and column purified using a commercial kit (RNAeasy Mini Kit; Qiagen, Valencia, Calif.) in accordance with the manufacturer's instructions. RNA concentrations were determined with a spectrophotometer (Nanodrop; Thermo Scientific, Wilmington, Del.) and the 260:280-nm absorbance ratio was calculated to determine RNA purity.
Quantitative Real-Time PCR (qRT-PCR) The RNA samples were reverse transcribed with random hexamers to cDNA using a reverse transcription kit (Quantitect; Qiagen) in accordance with the manufacturer's instructions. Quantitative RT-PCR was performed using a commercial kit (SYBR Green RT-PCR Reagents Kit; Applied Biosystems, Carlsbad, Calif.) in an ABI PRISM 7900HT sequence detector (Applied Biosystems). […] Plasminogen activator inhibitor 1 (PAI-1) mRNA expression was measured in both TM and ciliary processes tissues. Relative quantification of gene expression was performed using the standard curve method. […] The DCt was calculated as the difference in Ct values derived from the target gene and the 18S gene. The DDCt was calculated as DCt of the normalized assayed genes in the treated samples minus DCt of normalized assayed genes in the naïve control samples. […]

[2] = system: Mmp-2, Mmp-9, Mmp-13, Plat; assay: Mmp and Plat expression in protein treated C57BL/6J eyes not exposed to steroids (Example 15); type: in vivo, mouse; conditions: C57BL/6J not exposed to steroids
[3] = system: Mmp-2, Mmp-9, Mmp-13; assay: Mmp expression in protein treated PlatKO eyes (Example 14); type: in vivo, mouse; conditions: vs BSA treated eyes
Procedure: Tissue collection and confirmation of transgene expression: After outflow facility determination in adenovirus treated mice, mCherry expression in the TM was determined in all AdPLAT and AdPLATNE injected eyes. The eyes were dissected on ice to isolate a rim of tissue containing the TM by removing most of the iris and ciliary body. […] After observation, dissected rims were immediately immersed in RNA stabilizing agent (RNAlater, Invitrogen by ThermoFisher Scientific, Waltham, Mass., USA) and frozen. For TM tissue collection following protein treatment, all eyes were flash frozen in liquid nitrogen and subsequently dissected on ice to obtain the angle ring containing the TM tissues as previously described^43. Dissected TM tissues were immersed in RNAlater solution and then snap-frozen and stored at −80° C. until RNA extraction.
RNA isolation and quantitative real time PCR: Tissue collected was pooled (four eyes) and homogenized in TRIzol reagent (Life Technologies, Carlsbad, Calif., USA). RNA was isolated per the manufacturer's instructions and resuspended in nuclease-free water. RNA concentration was determined with a Nanodrop ND-1000 Spectrophotometer (ThermoFisher Scientific, Waltham, Mass., USA). cDNA was synthesized by using High-Capacity cDNA Reverse Transcription Kit (Applied Biosystems, Waltham, Mass., USA) according to manufacturer's protocol. Quantitative real-time PCR (qRT-PCR) was performed by using Green-2-Go qPCR Mastermix-ROX (BioBasic, Amherst, N.Y., USA) on a QuantStudio 6 Flex thermal cycler (Applied Biosystems, Carlsbad, Calif., USA).
mRNA expression of sheep PLAT and mouse Mmp-2, Mmp-9, and Mmp-13 in angle ring tissues was determined. Primers were designed by using Primer-BLAST (https://www.ncbi.nlm.nih.gov/tools/primer-blast/index.cgi?LINK_LOC=BlastHome; in the public domain) and their specificity was confirmed by the presence of a single band of the expected size on agarose gel electrophoresis. […] The relative fold change was calculated by using the ΔΔCt method. […]

tissue plasminogen activator [tPA]
PLAT expression ([1]; sheep TM (FIG. 7)): down-regulates
expression of MMP1 and MMP9 ([1]; sheep TM (FIG. 7)): up-regulates
expression of MMP1, MMP2, MMP9, MMP13 and PAI-1 ([1]; sheep trabecular meshwork and ciliary processes): up-regulates
endogenous Plat expression [2]: did not cause significant changes
gene expression changes in Mmp-2, Mmp-9 and Mmp-13 ([2]; vs BSA): not significantly different
Mmp-2 expression [3]: not significantly different
Mmp-9 expression [3]: significant upregulation
Mmp-13 expression [3]: significant upregulation
